33 compounds from ChEMBL document CHEMBL1150308, “Cytotoxic constituents from Brazilian red propolis and their structure-activity relationship” (Bioorg Med Chem, 2008) can be followed below.

Holding throughout (format): functional, cell-based
The subject of one assay is HeLa. Kind of assay: Cytotoxicity against human HeLa cells after 72 hrs by MTT assay.
The nature of assay [1]: Cytotoxicity against mouse B16-BL6 cells after 72 hrs by MTT assay. To be noted: B16-BL6, 72 h.
A short description of assay [2]: Cytotoxicity against mouse colon 26-L5 cells after 72 hrs by MTT assay.
For another assay, the system named is A549. Kind of assay: Cytotoxicity against human A549 cells after 72 hrs by MTT assay. To be noted: A549, 72 h.
Assay [3] is described as follows: Cytotoxicity against mouse LLC cells after 72 hrs by MTT assay. To be noted: Lewis lung carcinoma.
In the next assay the test system is HT-1080. Kind of assay: Cytotoxicity against human HT1080 cells after 72 hrs by MTT assay. The note with it: HT-1080, 72 h.

Each structure is given as a SMILES string. Where only a bound is given, the exact number is not on record here.

As to `O=C1C[C@@H](c2ccc(O)cc2)Oc2cc(O)cc(O)c21` [NARINGENIN], the IC50 (in the assay on HeLa; in assay [1]; in assay [2]; in the assay on A549; in assay [3]; with HT-1080) was over 100 µM each time.

Take `COc1ccc2c(c1)O[C@@H]1c3ccc(O)cc3OC[C@H]21`: the IC50 with HeLa stood at 23.4 µM; in assay [1] it was 42.4 µM; in assay [2] it was 11.3 µM; in the assay on A549 it was 39.5 µM; in assay [3], 17.2 µM; in the assay with HT-1080, 28.4 µM.

With `COc1cccc2c1C(=O)c1c(O)c3c(c(O)c1C2=O)C[C@@](O)(C(=O)CO)C[C@@H]3O[C@H]1C[C@H](N)[C@H](O)[C@H](C)O1` [DOXORUBICIN], the IC50 stood at 0.68 µM with HeLa; 8.05 µM in assay [1]; 0.33 µM in assay [2]; 7.88 µM in the assay with A549; 8.04 µM in assay [3]; 9.32 µM with HT-1080.

As for `O=C1C[C@@H](c2ccc(O)cc2)Oc2cc(O)ccc21` [LIQUIRTIGENIN], the IC50 with HeLa was over 100 µM; in assay [1], 97.7 µM; in assay [2], 56.6 µM; with A549 it was over 100 µM; in assay [3] it was over 100 µM; in the assay on HT-1080, over 100 µM.

In the case of `COc1ccc(-c2coc3cc(O)cc(O)c3c2=O)c(O)c1`, the IC50 was over 100 µM in the assay with HeLa; over 100 µM in assay [1]; 93.6 µM in assay [2]; over 100 µM with A549; over 100 µM in assay [3]; over 100 µM in the assay on HT-1080.

As to `COc1c(O)cc2c(c1O)C(=O)C[C@@H](c1ccccc1)O2` [DIHYDROOROXYLIN A], the IC50 stood at 39.3 µM with HeLa; 72.6 µM in assay [1]; 49 µM in assay [2]; 38 µM with A549; 82.7 µM in assay [3]; 47.6 µM with HT-1080.

Take `COc1ccc2c(c1)O[C@H]1c3ccc(O)c(O)c3OC[C@@H]21`: the IC50 is over 100 µM with HeLa; over 100 µM in assay [1]; 54.1 µM in assay [2]; over 100 µM in the assay with A549; over 100 µM in assay [3]; over 100 µM in the assay with HT-1080.

Regarding `COc1ccc([C@H]2COc3cc(O)ccc3C2=O)c(O)c1`, the IC50 in the assay with HeLa is over 100 µM; in assay [1], over 100 µM; in assay [2] it was 67 µM; in the assay with A549, over 100 µM; in assay [3], over 100 µM; with HT-1080, over 100 µM.

Take `O=c1c(-c2ccc(O)cc2)coc2cc(O)ccc12` [DAIDZEIN]: the IC50 with HeLa was over 100 µM; in assay [1], over 100 µM; in assay [2] it was 88.1 µM; with A549, over 100 µM; in assay [3], over 100 µM; in the assay with HT-1080, over 100 µM.

Consider `COc1ccc([C@H]2OC[C@H]3[C@@H]2CO[C@@H]3c2ccc(OC)c(OC)c2)cc1OC` [(+)-EUDESMIN], for which the IC50 (in the assay with HeLa; in assay [1]; in assay [2]; in the assay with A549; in assay [3]; with HT-1080) was over 100 µM throughout.

For `COc1ccc(-c2coc3cc(O)cc(O)c3c2=O)cc1` [BIOCHANIN], the IC50 in the assay with HeLa is over 100 µM; in assay [1], over 100 µM; in assay [2], 98 µM; with A549, over 100 µM; in assay [3], over 100 µM; with HT-1080 it was over 100 µM.

For the compound `O=c1[nH]cc(F)c(=O)[nH]1` [FLUOROURACIL], the IC50 is 0.77 µM with HeLa; 5.78 µM in assay [1]; 0.46 µM in assay [2]; 9.19 µM with A549; 2.59 µM in assay [3]; 9.45 µM in the assay on HT-1080.

For `COc1ccc(-c2coc3cc(O)ccc3c2=O)cc1` [FORMONONETIN], the IC50 in the assay on HeLa was over 100 µM; in assay [1] it was over 100 µM; in assay [2], 83.6 µM; in the assay with A549 it was over 100 µM; in assay [3] it was over 100 µM; in the assay on HT-1080 it was over 100 µM.

As to `COc1ccc([C@H]2COc3cc(O)ccc3C2)c(OC)c1O` [MUCRONULATOL], the IC50 with HeLa stood at 24.2 µM; in assay [1] it was 30.4 µM; in assay [2], 7.3 µM; with A549, 9.9 µM; in assay [3], 8.4 µM; in the assay with HT-1080 it was 18.2 µM.

`O=C1c2ccc(O)cc2O[C@H](c2ccccc2)[C@H]1O`: the IC50 (in the assay on HeLa; in assay [1]; in assay [2]; with A549; in assay [3]; with HT-1080) was over 100 µM throughout.

With `O=C1c2ccc(O)cc2O[C@H](c2ccc(O)cc2)[C@H]1O` [GARBANZOL], the IC50 (in the assay on HeLa; in assay [1]; in assay [2]; with A549; in assay [3]; with HT-1080) was over 100 µM each time.

Take `O=C(c1ccc(O)cc1O)[C@@H](O)Cc1ccc(O)cc1`: the IC50 (in the assay with HeLa; in assay [1]; in assay [2]; in the assay with A549; in assay [3]; in the assay on HT-1080) was over 100 µM throughout.

Turning to `O=C1c2ccc(O)cc2OC1(O)Cc1ccc(O)cc1` (stereo not drawn), the IC50 is over 100 µM with HeLa; over 100 µM in assay [1]; 25.9 µM in assay [2]; over 100 µM in the assay with A549; over 100 µM in assay [3]; over 100 µM in the assay with HT-1080.

Regarding `COc1cc([C@@H]2OC[C@@H]3[C@H]2CO[C@H]3c2ccc(O)c(OC)c2)ccc1O` [(+)-PINORESINOL], the concentration for half-maximal inhibition (IC50) was 92.5 µM with HeLa; over 100 µM in assay [1]; over 100 µM in assay [2]; over 100 µM in the assay with A549; over 100 µM in assay [3]; over 100 µM in the assay on HT-1080.

Take `COc1cc2c(cc1O)O[C@H](c1ccccc1)CC2=O`: the IC50 is 5.6 µM in the assay on HeLa; 6.7 µM in assay [1]; 5.9 µM in assay [2]; 8.6 µM in the assay on A549; 9.3 µM in assay [3]; 7.9 µM in the assay with HT-1080.

Consider `CCO[C@@]12COc3cc(O)ccc3[C@@H]1Oc1cc(OC)ccc12`, for which the IC50 (in the assay on HeLa; in assay [1]; in assay [2]; in the assay with A549; in assay [3]; in the assay on HT-1080) was over 100 µM throughout.

Take `COc1ccc(-c2coc3cc(O)ccc3c2=O)cc1O` [CALYCOSIN]: the IC50 in the assay on HeLa is over 100 µM; in assay [1], over 100 µM; in assay [2] it was 98 µM; in the assay with A549, over 100 µM; in assay [3], over 100 µM; in the assay on HT-1080, over 100 µM.

As for `COc1ccc(-c2coc3cc(O)ccc3c2=O)c(O)c1` [XENOGNOSIN B], the IC50 was 69.8 µM with HeLa; 34.1 µM in assay [1]; 49.3 µM in assay [2]; over 100 µM in the assay on A549; over 100 µM in assay [3]; over 100 µM in the assay with HT-1080.

As to `COc1ccc2c(c1O)O[C@@H]1c3ccc(O)cc3OC[C@H]21`, the IC50 in the assay with HeLa is 61.2 µM; in assay [1], 47.5 µM; in assay [2], 68.1 µM; in the assay on A549, over 100 µM; in assay [3] it was 57.2 µM; in the assay with HT-1080, over 100 µM.

With `O=C(/C=C/c1ccccc1)c1ccc(O)cc1O` [2',4'-DIHYDROXYCHALCONE], the IC50 stood at 23.1 µM with HeLa; 44.3 µM in assay [1]; 7.4 µM in assay [2]; 41.6 µM in the assay with A549; 39.5 µM in assay [3]; 34 µM in the assay with HT-1080.

Consider `COc1ccc([C@H]2COc3cc(O)cc(O)c3C2=O)c(O)c1`, for which the IC50 is over 100 µM in the assay on HeLa; over 100 µM in assay [1]; 71.3 µM in assay [2]; over 100 µM in the assay with A549; over 100 µM in assay [3]; over 100 µM in the assay with HT-1080.

On to `C=C[C@@H](c1ccccc1)c1cc(O)c(OC)cc1OC`, for which the IC50 in the assay with HeLa was 60.1 µM; in assay [1], 53.8 µM; in assay [2], 60.3 µM; in the assay with A549 it was 73.7 µM; in assay [3], over 100 µM; with HT-1080 it was over 100 µM.

In the case of `COc1cc2c(cc1O)O[C@H](c1ccccc1)[C@@H](O)C2=O`, the IC50 (in the assay on HeLa; in assay [1]; in assay [2]; in the assay with A549; in assay [3]; in the assay with HT-1080) was over 100 µM in each case.

On to `O=C(/C=C/c1ccc(O)cc1)c1ccc(O)cc1O` [ISOLIQUIRITIGENIN], for which the IC50 was determined as 82.6 µM with HeLa; 80.5 µM in assay [1]; 21.8 µM in assay [2]; 98.9 µM in the assay on A549; 84 µM in assay [3]; 76.7 µM with HT-1080.

As for `COc1cc(O)ccc1[C@H]1COc2cc(O)ccc2C1`, the IC50 in the assay with HeLa is 77.1 µM; in assay [1], 33.6 µM; in assay [2], 49.8 µM; with A549, over 100 µM; in assay [3], over 100 µM; in the assay on HT-1080, 75.3 µM.

In the case of `O=C1C[C@@H](c2ccccc2)Oc2cc(O)c(O)c(O)c21`, the IC50 in the assay on HeLa was over 100 µM; in assay [1] it was over 100 µM; in assay [2] it was 53.4 µM; in the assay on A549, over 100 µM; in assay [3], over 100 µM; in the assay on HT-1080, over 100 µM.

On to `COc1cc([C@H]2OC[C@H]3[C@@H]2CO[C@@H]3c2cc(OC)c(O)c(OC)c2)cc(OC)c1O` [SYRINGARESINOL], for which the IC50 (in the assay on HeLa; in assay [1]; in assay [2]; in the assay with A549; in assay [3]; in the assay with HT-1080) was over 100 µM in each case.

`COc1ccc2c(c1)O[C@H]1c3ccc(O)c(OC)c3OC[C@@H]21`: the IC50 is 47.1 µM with HeLa; over 100 µM in assay [1]; 29.4 µM in assay [2]; 97.3 µM with A549; 97.6 µM in assay [3]; 96.3 µM in the assay on HT-1080.
